The subject of one data set is CD34+ cells. Nature of the data set: Hematopoietic progenitor colony forming units (CFU) assay. The conditions noted are these: 14 days.
Data set [1] concerns DB and OCI-LY3 DLBCL derived cell-line. Nature of the data set: phospho-RPA2 T21 foci immunofluorescence. The format is cell-based, human. The settings on record: 50 nM, 24H. How it is done:
DB and OCI-LY3 DLBCL derived cell-line was treated with 50 nM Ironomycin during 24H. Immunofluoresence staining for foci of phospho-RPA2 T21, S phase (EdU integration) and DAPI was performed in DLBCL cells. (Magnification x63). Scale bar: 10 μm.
(§1) At least 300 cells were counted for each group. Statistical difference was tested using a Fisher's exact test. * P<0.05, ** P<0.01, *** P<0.001, **** P<0.0001. NS: non-significant.

In data set [2] the test system is DLBCL cells. Nature of the data set: Ferroptosis, Bodipy-C11 staining and ferrostatin-1 rescue. The format is cell-based, human.
For a further data set, the system named is 16 DLBCL cell lines. Nature of the data set: Cell viability assay, panel of 16 DLBCL cell lines. It counts as cell-based, human. The settings on record: 96H, read-out: IC50 range over all DLBCL cell lines. The source says: The 16 DLBCL cell lines (U2932, OCI-LY-3, NU-DHL-1, OCI-LY-19, DB, SUDHL4, OCILY1, SUDHL5, DOHH2, SUDHL10, HT, RI-1, SU-DHL-6, NUDUL-1, WSU-DLCL-2 and OCI-LY-7) were purchased from the DSMZ (Leibniz-Institut DSMZ—Deutsche Sammlung von Mikroorganismen und Zellkulturen GmbH, Germany). They were maintained in RPMI-1640 (Gibco, Invitrogen), supplemented with 10% fetal bovine serum (PAA laboratory GmbH) for U2932, SUDHL-4, HT, DOHH2, SUDHL-10, RI-1, WSU-DLCL-2 cell lines, 20% FBS OCI-LY3, DB, SUDHL-5, NUDHL-1, SU-DHL-6, NUDUL-1 cell lines. OCI-LY1 and OCI-LY7 were cultured in IMDM (Gibco, Invitrogen), supplemented with 20% fetal bovine serum and OCI-LY19 was cultured in MEM alpha modified (Gibco, Invitrogen), supplemented with 20% fetal bovine serum. […]
(§2) DLBCL-derived cell lines were cultured for 4 days in 96-well flat-bottom microtiter plates in RPMI 1640 medium, 10% or 20% FCS (control medium) in the presence of various compounds. The number of viable cells in culture was determined using the CellTiter-Glo Luminescent Cell Viability Assay from Promega, Madison, Wis., USA using a Centro LB 960 luminometer (Berthold Technologies, Bad Wildbad, Germany).
This test is based on quantitation of the intracellular ATP present, which signals the presence of metabolically active cells. Data are expressed as the mean percentage of six replicates, normalized to the untreated control. […]

The next data set concerns HT. Nature of the data set: Cell viability assay (CellTiter-Glo, ATP quantification). The format is cell-based, human. The settings on record: HT (GCB), 96H.
Source text: (§3) The 16 DLBCL cell lines (U2932, OCI-LY-3, NU-DHL-1, OCI-LY-19, DB, SUDHL4, OCILY1, SUDHL5, DOHH2, SUDHL10, HT, RI-1, SU-DHL-6, NUDUL-1, WSU-DLCL-2 and OCI-LY-7) were purchased from the DSMZ (Leibniz-Institut DSMZ—Deutsche Sammlung von Mikroorganismen und Zellkulturen GmbH, Germany). They were maintained in RPMI-1640 (Gibco, Invitrogen), supplemented with 10% fetal bovine serum (PAA laboratory GmbH) for U2932, SUDHL-4, HT, DOHH2, SUDHL-10, RI-1, WSU-DLCL-2 cell lines, 20% FBS OCI-LY3, DB, SUDHL-5, NUDHL-1, SU-DHL-6, NUDUL-1 cell lines. OCI-LY1 and OCI-LY7 were cultured in IMDM (Gibco, Invitrogen), supplemented with 20% fetal bovine serum and OCI-LY19 was cultured in MEM alpha modified (Gibco, Invitrogen), supplemented with 20% fetal bovine serum. Cultures were maintained at 37° C. in a humidified atmosphere with 5% CO2.
as §2
(§4) This test is based on quantitation of the intracellular ATP present, which signals the presence of metabolically active cells. Data are expressed as the mean percentage of six replicates, normalized to the untreated control.
We extending the analyses to a large panel of 16 DLBCL cell lines. The panel of 16 DLBCL cell lines were incubated with increasing concentrations of Ironomycin or vehicle for 96H. Table 7 hereunder presents the inhibitory concentration 50% (IC50) of Ironomycin for the 16 DLBCL cell-lines.
(In general: Cellular ATP, detected with luciferase, serves as a proxy for viable cell number.)

For a further data set, the system named is DB and OCI-LY3 cells. As to the kind of experiment: DNA fiber assay (replication fork progression). The format is cell-based, human. How it is done: DB and OCI-LY3 cells were labeled with IdU, treated with vehicle, gemcitabine (10 μM) or Ironomycin (100 μM) and labeled with CIdU (30 minutes each), and then harvested for DNA fiber assay (A and B).
DB cells were pretreated or not by deoxynucleotides for 30 minutes, labeled with IdU, treated with vehicle, gemcitabine (10 μM) or Ironomycin (100 μM) and labeled with CIdU (30 minutes each), and then harvested for DNA fiber assay (C and D).
Boxplot represent median±interquartile ranges and dots represent outliers of track length (expressed in μm). Results represent at least 200 track measurements. * P<0.05, **** P<0.0001, NS: non-significant, Mann-Whitney test.
Eukaryotic cells contain numerous iron-requiring proteins such as iron-sulfur (Fe—S) cluster proteins, hemoproteins and ribonucleotide reductases that play key roles in DNA replication and require iron as a cofactor (Zhang, 2014). The inventors next monitored the effect of ironomycin on fork progression in DLBCL cells using DNA fiber analysis. To this end, DLBCL cell lines were pulse labeled with 10 μM IdU and 100 μM CIdU and the length of CIdU tracks was measured to estimate the distance covered by individual forks during the pulse. […] Gemcitabine was used as a positive control. […]

A further data set relates to OCI-LY3. As to the kind of experiment: Cell viability assay (CellTiter-Glo, ATP quantification). It counts as cell-based, human. The conditions noted are these: OCI-LY3, 96H; read-out: IC50. As for the experimental part: (§5) FIG. 3: Iron chelators and Ironomycin inhibit DLBCL cell growth DLBCL cells were incubated with different concentrations of iron chelators or vehicle for 96H. Inhibitory concentration 50% (IC50) was calculated with concentration-response curve after treatment with Deferoxamin (A), Deferasirox, (B) and Ironomycin (C). Cell viability was examined using quantification of ATP assay. Data are expressed as mean percentage+/−SEM of at least three independent experiments performed in sixplicate.
as §3, §2, §4

In another data set the test system is U2932. Described as above. The settings on record: U2932, 96H; read-out: IC50. The format is cell-based, human. How it is done: as §5, §3, §2, §4
In another data set the test system is SUDHL-5. The data set is described as above. It counts as cell-based, human. The settings on record: SUDHL5, 96H; read-out: IC50. How it is done: as §5, §3, §2, §4
Another data set has as its system DB. The description is as above. It counts as cell-based, human. The settings on record: 96H, read-out: IC50. How it is done: as §5, §3, §2, §4
For data set [3], the system named is OCI-LY3 and DB cell lines. The source says:
The inventors further investigated the effect of Iron supplementation on the cell death induced by these treatments. Iron chelators concentrations were chosen according the maximal plasmatic concentration achievable in the patient (Nisbet-Brown et al., 2003).
Chaetocin was used as positive control of ROS production inhibited by GSH (Isham et al., 2007).

Data set [4] relates to DLBCL cells. Nature of the data set: DNA double strand breaks, Phospho-H2A.X (Ser139) foci and western blot. The settings on record: 24 hours. The format is cell-based, human. How it is done:
DSB induction was monitored by Phospho-H2A·X (Ser139) staining and nuclei were stained with DAPI. Foci were visualized by fluorescence microscopy. Original magnification X 63. Scale bar: 10 μm.
Cells were treated with iron chelators (80 μM Deferasirox), and Ironomycin (20 nM and 100 nM) during 24H. Protein levels of Phospho-H2A·X (S139) were analyzed by western blot (D)
as §1
Background: Immunoblotting shows a protein as a band on a membrane.

Protocol for CD34+ cells: Hematopoietic progenitor colony-forming units assay were performed with CD34+ cells from apheresis of 5 donors. […] CFU-C, CFU-E and CFU-GM were counted after 14 days culture (C).
Mobilized peripheral blood of donor were collected using an apheresis machine. Cells were CD34+ enriched by immuno-magnetic cell separation and fluorescence activated cell sorting (FACS).
About 250 viable CD34+ cells/mL were cultured in Methocult GF H84434 Medium (Stem Cell, #84434). Using a 3 mL syringe attached to a 16 gauge blunt end needle, 1 mL of the mixture was dispensed into 2 35 mm dishes.
Dishes were incubated at 37° C., in 5% C02, with >95% humidity for 14 days.

As to `C#CCN[C@@H]1C=C[C@]2(O[C@H]([C@@H](CC)C(=O)[C@@H](C)[C@@H](O)[C@H](C)[C@@H]3O[C@@H]([C@@H](CC)C(=O)O)CC[C@@H]3C)[C@@H](C)C[C@H]2C)O[C@@]12CC[C@@](C)([C@H]1CC[C@](O)(CC)[C@H](C)O1)O2` [Ironomycin], the “toxicity on CFU-C, CFU-E and CFU-GM formation” value in the data set on CD34+ cells (10 nM, N=5) is given as “no significant toxicity”. The “hematopoietic toxicity compared to conventional chemotherapy” value in the data set on CD34+ cells (50 and 100 nM) is reported as “significant lower hematopoietic toxicity”. In addition, the “phosphorylation of RPA2 on threonine 21 (replication stress)” value in data set [1] was “increased phosphorylation of replication protein A sub-unit 2 (RPA2) on threonine 21”. Also, the “prevention of induced cell death by ferrostatin-1” value in the data set with DLBCL cells [2] is given as “partially prevented”. In addition, the “rescue of toxicity by combination of Oph-Q-VD and Fer-1” value in the data set on DLBCL cells [2] was “could not completely abrogate”. Besides, the “induction of ferroptosis (lipid peroxidation)” value with DLBCL cells [2] (Bodipy-C11 staining) was “induces ferroptosis”. Moreover, the IC50 with 16 DLBCL cell lines is 7.2 to 91.5 nM; in the data set with HT, 24.1 nM; in the data set with OCI-LY3 it was 16.8 nM; in the data set on U2932, 30.4 nM; in the data set on SUDHL-5 it was 28.9 nM; in the data set on DB, 17.2 nM. For the same compound, in the data set with DB and OCI-LY3 cells (DB cells pretreated by deoxynucleotides for 30 minutes), the “effect of deoxynucleotide supplementation on replication fork delay” value was “partially reversed”. In addition, the “length of CIdU tracks compared to control cells” value with DB and OCI-LY3 cells (P<0.0001) is reported as “significantly shorter”. Also, the “caspase activation associated with apoptosis” value in data set [3] was “activation of caspase-3 and −7”. Also, in data set [3] (Annexin V and PARP cleavage), the induction of apoptosis result is on record as “induces apoptosis”. For the same compound, the “effect of iron supplementation on drug-induced apoptosis / cytotoxicity” value in data set [3] (Iron(III) chloride supplementation) is “did not affect”. Further, the “inhibition of induced apoptosis by Oph-Q-VD pan-caspase inhibitor” value in [3] (P<0.001) is on record as “partially inhibited”. The “DNA double strand breaks (γH2AX foci, H2AX phosphorylation)” value in the data set on DLBCL cells [4] was “induced DNA double strand breaks”.

What is called IC50 is the point on the concentration scale where inhibition reaches its midpoint.

The record behind these values is patent US20230220480A1, “IRON-SCORE AND IN VITRO METHOD FOR IDENTIFYING HIGH RISK DLBCL SUBJECTS AND THERAPEUTIC USES AND METHODS” (CENTRE NATIONAL DE LA RECHERCHE SCIENTIFIQUE (CNRS), priority 2019, published 2023).
